Measurements from patent publication US20100041647A1, “3-Substituted-[1,2,3]-Benzotriazinone compounds for enhancing glutamatergic synaptic responses” (CORTEX PHARMACEUTICALS, INC., priority 2007, published 2010).

Assays:
[1] = tested on: AMPA receptor; assay: Patch clamp electrophysiology assay (glutamate-induced whole-cell current in cultured cortical neurons); type: cell-based; conditions: Concentration at which glutamate induced current is increased by 100%; 500 μM glutamate, rat cortical neurons
Experimental: Cortical cells were prepared from day 18-19 embryonic Sprague-Dawley rats and recorded after 3 days in culture. The extracellular solution (ECS) contained (in mM): NaCl (145), KCl (5.4), HEPES (10), MgCl2 (0.8), CaCl2 (1.8), glucose (10), sucrose (30); pH. 7.4. In order to block the voltage-gated sodium currents, 40 nM TTX was added to the recording solution. The intracellular solution contained (in mM): K-gluconate (140), HEPES (20), EGTA (1.1), phosphocreatine (5), MgATP (3), GTP (0.3), MgCl2 (5), and CaCl2 (0.1); pH: 7.2. All test compound and glutamate solutions were made-up in the extracellular solution.
The whole-cell current was measured with patch-clamp amplifier (Axopatch 200B), filtered at 2 kHz, digitized at 5 kHz and recorded on a PC with pClamp 8. The cells were voltage-clamped at −80 mV. Solutions were applied by DAD-12 system. A baseline response for each cell was recorded using a I s pulse of 500 μM glutamate dissolved in ECS. Responses to test compound were then determined by application of a 10 s pulse of test compound followed by a 1 s pulse of the same concentration of test compound plus 500 μM glutamate and then 10 s of saline. This pulse sequence was repeated until a stable reading was obtained, or until sufficient data points were measured to allow extrapolation to a calculated maximum change.
The mean value of plateau current between 600 ms to 900 ms after application of glutamate or test compound plus glutamate was calculated and used as the parameter to measure the drug effect. The plateau responses in the presence of varying concentrations of test compound were divided by the baseline response in order to calculate the percentage increase. Compounds are deemed active in this test if, at a test concentration of 3 μM or less, they produce a greater than 100% increase in the value of the steady-state current measured due to application of glutamate alone. The concentration at which the glutamate induced current is increased by 100% is commonly referred to as the EC2x value.

[2] = tested on: AMPA receptor; assay: In vivo electrophysiology (field EPSP in dentate gyrus of anesthetized animals); set-up: species or system rat
Experimental: The physiological effects of invention compounds were tested in vivo in anesthetized animals according to the following procedures.
Animals are maintained under anesthesia by phenobarbital administered using a Hamilton syringe pump. Stimulating and recording electrodes are inserted into the perforant path and dentate gyrus of the hippocampus, respectively. Once electrodes are implanted, a stable baseline of evoked responses are elicited using single monophasic pulses (100 μs pulse duration) delivered at 3/min to the stimulating electrode. Field EPSPs are monitored until a stable baseline is achieved (about 20-30 min), after which a solution of test compound in HPCD is injected intraperitoneally and evoked field potentials are recorded. Evoked potentials are recorded for approximately 2 h following drug administration or until the amplitude of the field EPSP returns to baseline. In the latter instance, it is common that an iv administration is also carried out with an appropriate dose of the same test compound.

[3] = tested on: AMPA receptors; assay: Rat hippocampal slice assay (field EPSP in CA1); type: cell-based
Experimental: (§1) In another test, excitatory responses (field EPSPs) were measured in hippocampal slices, which were maintained in a recording chamber continuously perfused with artificial cerebrospinal fluid (ACSF). During a 15-30 minute interval, the perfusion medium was switched to one containing various concentrations of the test compounds. Responses collected immediately before and at the end of drug perfusion were superimposed in order to calculate the percent increase in EPSP amplitude.
The field EPSP (excitatory post-synaptic potential) recorded in field CA1 after stimulation of CA3 axons is known to be mediated by AMPA receptors, which are present in the synapses (Kessler et al., Brain Res. 560: 337-341 (1991)). Drugs that selectively block the receptor selectively block the field EPSP (Muller et al., Science, supra). […] These effects are mirrored in the field EPSP (see, for example, Staubli et al., Psychobiology, supra; Xiao et al., Hippocampus, supra; Staubli et al., Hippocampus 2: 4958 (1992)).
To obtain data for the activity of invention compounds on synaptic responses, a bipolar nichrome stimulating electrode was positioned in the dendritic layer (stratum radiatum) of the hippocampal subfield CA1 close to the border of subfield CA3, as described in Example 30. Current pulses (0.1 msec) through the stimulating electrode activate a population of the Schaffer-commissural (SC) fibers, which arise from neurons in the subdivision CA3 and terminate in synapses on the dendrites of CA1 neurons. Activation of these synapses causes them to release the transmitter glutamate. Glutamate binds to post-synaptic AMPA receptors, which then transiently open an associated ion channel and permit a sodium current to enter the postsynaptic cell. This current results in a voltage in the extracellular space (the field EPSP), which is recorded by a high impedance recording electrode positioned in the middle of the stratum radiatum of CA1.
The intensity of the stimulation current was adjusted to produce half-maximal EPSPs (typically about 1.5-2.0 mV). Paired stimulation pulses were given every 40 sec with an interpulse interval of 200 msec, as described further in Example 30.
as §1, with “Hippocampal slices” for “In another test, excitatory responses (field EPSPs) were measured in hippocampal slices, which”, “During” for “During a”, “intervals,” for “interval,”

Row | SMILES | In vitro Patch Clamp Electrophysiology EC2x [1] | % increase in the amplitude of the field EPSP in rat dentate gyrus ([2]; 5 mpk i.p.) | % Increase in the amplitude of the field EPSP in the CA1 region of rat hippocampal slice ([3]; @ 3 μM) | % increase in the amplitude of the field EPSP in rat dentate gyrus ([2]; 5 mpk i.v.) | % Increase in the amplitude of the field EPSP in the CA1 region of rat hippocampal slice ([3]; @ 10 μM)
1 | C[C@H](Cn1ncnn1)n1nnc2cc3c(cc2c1=O)OC1COCCN1C3=O (stereo partly drawn) [Example 64, 3-[(2R)-1-(2H-Tetrazol-2-yl)propan-2-yl]-6a,7,9,10-tetrahydro-3H-[1,4]oxazino[3′,4′:2,3][1,3]oxazino[6,5-g][1,2,3]benzotriazine-4,12-dione] | 170 nM | 30%^3 |  |  | 
2 | O=C1c2cc3nnn(CCc4cccc(F)c4)c(=O)c3cc2OC2CCCN12 (stereo not drawn) [Example 1, 3-[2-(3-Fluorophenyl)ethyl]-6a,7,8,9-tetrahydro-3H-pyrrolo[2′,1′:2,3][1,3]oxazino[6,5-g][1,2,3]benzotriazine-4,11-dione] | 3 nM | 24%^3 | 9% @ 3 μM |  | 
3 | C[C@H](Cn1ncnn1)n1nnc2cc3c(cc2c1=O)OC1CCCN1C3=O (stereo partly drawn) [Example 37A, 3-[(2R)-1-(2H-Tetrazol-2-yl)propan-2-yl]-6a,7,8,9-tetrahydro-3H-pyrrolo[2′,1′:2,3][1,3]oxazino[6,5-g][1,2,3]benzotriazine-4,11-dione] | 40 nM | 39%^3 |  |  | 
4 | C#CCn1nnc2cc3c(cc2c1=O)OC1CCCN1C3=O (stereo not drawn) [Example 9, 3-Prop-2-yn-1-yl-6a,7,8,9-tetrahydro-3H-pyrrolo[2′,1′:2,3][1,3]oxazino[6,5-g][1,2,3]benzotriazine4,11-dione] | 140 nM |  | 11% @ 3 μM | 11%^4 | 
5 | N#CCn1nnc2cc3c(cc2c1=O)OC1CCCN1C3=O (stereo not drawn) [Example 10, (4,11-Dioxo-4,6a,7,8,9,11-hexahydro-3H-pyrrolo[2′,1′:2,3][1,3]oxazino[6,5-g][1,2,3]benzotriazin-3-yl)acetonitrile] | 190 nM | 12%^3 |  |  | 10% @ 10 μM
6 | O=C1c2cc3nnn(C4CC4)c(=O)c3cc2OC2CCCN12 (stereo not drawn) [Example 4, 3-Cyclopropyl-6a,7,8,9-tetrahydro-3H-pyrrolo[2′,1′:2,3][1,3]oxazino[6,5-g][1,2,3]benzotriazine-4,11-dione] | 400 nM |  | 5% @ 3 μM | 19%^4 | 
7 | C[C@H](CSC#N)n1nnc2cc3c(cc2c1=O)OC1CCCN1C3=O (stereo partly drawn) [Example 35, (2R)-2-(4,11-Dioxo-4,6a,7,8.9,11-hexahydro-3H-pyrrolo[2′,1′:2,3][1,3]oxazino[6,5-g][1,2,3]benzotriazin-3-yl)propyl thiocyanate] | 80 nM | 19%^3 |  |  | 
8 | O=C1c2cc3nnn(CCn4cccn4)c(=O)c3cc2OC2CCCN12 (stereo not drawn) [Example 36, 3-[2-(1H-Pyrazol-1-yl)ethyl]-6a,7,8,9-tetrahydro-3H-pyrrolo[2′,1′:2,3][1,3]oxazino[6,5-g][1,2,3]benzotriazine-4,11-dione] | 100 nM |  | 12% @ 3 μM | 18%^4 | 
9 | C#C[C@H](Cc1cc(F)cc(F)c1)n1nnc2cc3c(cc2c1=O)O[C@@H]1CCCN1C3=O [Example 16, (6aR)-3-[(2S)-1-(3,5-Difluorophenyl)but-3-yn-2-yl]-6a,7,8,9-tetrahydro-3H-pyrrolo[2′,1′:2,3][1,3]oxazino[6,5-g][1,2,3]benzotriazine-4,11-dione] | 3 nM | 34%^3 | 1% @ 3 μM |  | 
